{
  "source": "paper PMC3914206",
  "key": {"panel of 442 kinases [1]": {"target": "T1, panel of 442 kinases (Homo sapiens, UniProt Q9UBE8)", "T1 construct": "purchased KINOMEscan", "T1 sequence (Q9UBE8 1-527)": "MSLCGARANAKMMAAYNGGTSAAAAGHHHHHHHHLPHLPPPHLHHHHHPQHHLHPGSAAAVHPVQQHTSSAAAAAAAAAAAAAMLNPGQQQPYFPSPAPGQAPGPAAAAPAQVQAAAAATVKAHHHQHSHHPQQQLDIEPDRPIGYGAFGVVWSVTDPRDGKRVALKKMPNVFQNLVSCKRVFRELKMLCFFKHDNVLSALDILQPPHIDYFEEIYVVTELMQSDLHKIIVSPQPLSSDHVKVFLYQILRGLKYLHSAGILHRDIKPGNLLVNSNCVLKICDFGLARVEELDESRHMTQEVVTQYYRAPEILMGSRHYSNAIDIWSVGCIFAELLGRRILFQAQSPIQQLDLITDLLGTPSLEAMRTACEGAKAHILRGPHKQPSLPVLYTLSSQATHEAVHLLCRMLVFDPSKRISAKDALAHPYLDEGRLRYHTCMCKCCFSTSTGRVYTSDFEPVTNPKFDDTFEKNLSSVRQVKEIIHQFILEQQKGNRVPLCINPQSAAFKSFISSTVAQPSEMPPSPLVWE", "assay_type": "binding", "set-up": "KINOMEscan: ABL1(F317L)-phosphorylated / KINOMEscan: ABL1(H396P)-nonphosphorylated / KINOMEscan: ABL1(H396P)-phosphorylated / KINOMEscan: ABL1(M351T)-phosphorylated / KINOMEscan: ABL1(T315I)-phosphorylated / KINOMEscan: ABL1-nonphosphorylated / KINOMEscan: ABL1-phosphorylated / KINOMEscan: ACVR2A / KINOMEscan: ACVR2B / KINOMEscan: ADCK3 / KINOMEscan: ADCK4 / KINOMEscan: AKT1 / KINOMEscan: AKT3 / KINOMEscan: ALK / KINOMEscan: ARK5 / KINOMEscan: AURKA / KINOMEscan: AURKC / KINOMEscan: BIKE / KINOMEscan: BMPR1A / KINOMEscan: BMPR1B / KINOMEscan: BMX / KINOMEscan: BRK / KINOMEscan: BRSK1 / KINOMEscan: BRSK2 / KINOMEscan: CAMK1 / KINOMEscan: CAMK1D / KINOMEscan: CAMK1G / KINOMEscan: CAMK2A / KINOMEscan: CAMK2B / KINOMEscan: AAK1 / KINOMEscan: CAMK2D / KINOMEscan: CAMK2G / KINOMEscan: ABL1(F317I)-nonphosphorylated / KINOMEscan: ABL1(F317I)-phosphorylated / KINOMEscan: ABL1(F317L)-nonphosphorylated: unit: % Ctrl", "conditions": "Compound Concentration 10 µM", "description": "(§1) We assessed the selectivity of members of this scaffold using the KINOMEscan methodology across a near comprehensive panel of 442 kinases [[18,27]]."}, "panel of 442 kinases [2]": {"target": "T2, panel of 442 kinases (Homo sapiens, UniProt P36894)", "T2 construct": "purchased KINOMEscan", "T2 sequence (P36894 24-532)": "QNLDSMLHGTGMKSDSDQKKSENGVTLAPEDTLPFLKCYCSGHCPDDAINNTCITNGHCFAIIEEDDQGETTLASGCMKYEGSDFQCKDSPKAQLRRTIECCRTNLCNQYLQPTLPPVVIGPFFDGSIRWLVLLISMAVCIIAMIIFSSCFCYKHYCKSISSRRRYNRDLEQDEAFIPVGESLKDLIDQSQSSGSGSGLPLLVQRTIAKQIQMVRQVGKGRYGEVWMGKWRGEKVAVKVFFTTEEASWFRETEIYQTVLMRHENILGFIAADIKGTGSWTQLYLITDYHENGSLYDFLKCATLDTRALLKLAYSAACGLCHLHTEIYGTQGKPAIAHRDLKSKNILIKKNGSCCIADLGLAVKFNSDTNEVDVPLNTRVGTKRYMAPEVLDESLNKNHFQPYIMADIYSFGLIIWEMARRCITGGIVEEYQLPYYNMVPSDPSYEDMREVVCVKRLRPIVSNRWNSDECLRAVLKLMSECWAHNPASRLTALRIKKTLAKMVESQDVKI", "assay_type": "binding", "set-up": "KINOMEscan: ABL1(F317L)-phosphorylated / KINOMEscan: ABL1(H396P)-nonphosphorylated / KINOMEscan: ABL1(H396P)-phosphorylated / KINOMEscan: ABL1(M351T)-phosphorylated / KINOMEscan: ABL1(T315I)-phosphorylated / KINOMEscan: ABL1-nonphosphorylated / KINOMEscan: ABL1-phosphorylated / KINOMEscan: ACVR2A / KINOMEscan: ACVR2B / KINOMEscan: ADCK3 / KINOMEscan: ADCK4 / KINOMEscan: AKT1 / KINOMEscan: AKT3 / KINOMEscan: ALK / KINOMEscan: ARK5 / KINOMEscan: AURKA / KINOMEscan: AURKC / KINOMEscan: BIKE / KINOMEscan: BMPR1A / KINOMEscan: BMPR1B / KINOMEscan: BMX / KINOMEscan: BRK / KINOMEscan: BRSK1 / KINOMEscan: BRSK2 / KINOMEscan: CAMK1 / KINOMEscan: CAMK1D / KINOMEscan: CAMK1G / KINOMEscan: CAMK2A / KINOMEscan: CAMK2B / KINOMEscan: AAK1 / KINOMEscan: CAMK2D / KINOMEscan: CAMK2G / KINOMEscan: ABL1(F317I)-nonphosphorylated / KINOMEscan: ABL1(F317I)-phosphorylated / KINOMEscan: ABL1(F317L)-nonphosphorylated: unit: % Ctrl", "conditions": "Compound Concentration 10 µM", "description": "as §1"}},
  "data": [
    {"smiles": "COc1cc(C(=O)N2CCC(N3CCN(C)CC3)CC2)ccc1Nc1ncc2c(n1)N(C1CCCC1)c1ccccc1C(=O)N2C", "note": "[Compound 25, 11-cyclopentyl-2-((2-methoxy-4-(4-(4-methylpiperazin-1-yl)piperidine-1-carbonyl)phenyl)amino)-5-methyl-5H-benzo[e]pyrimido[5,4-b][1,4]diazepin-6(11H)-one]", "values": [
      {"measurement": "KINOMEscan: NLK", "setting": "panel of 442 kinases [1]", "result": 63},
      {"measurement": "KINOMEscan: BMPR1A", "setting": "panel of 442 kinases [2]", "result": 96}
    ]},
    {"smiles": "CCOc1cc(C(=O)N2CCC(N3CCN(C)CC3)CC2)ccc1Nc1ncc2c(n1)N(C1CCCC1)c1ccccc1C(=O)N2C", "note": "[Compound 26]", "values": [
      {"measurement": "KINOMEscan: NLK", "setting": "panel of 442 kinases [1]", "result": 78},
      {"measurement": "KINOMEscan: BMPR1A", "setting": "panel of 442 kinases [2]", "result": 100}
    ]},
    {"smiles": "COc1cc(C(=O)N2CCC(N3CCN(C)CC3)CC2)ccc1Nc1ncc2c(n1)N1CCc3cccc(c31)C(=O)N2C", "note": "[Compound 24]", "values": [
      {"measurement": "KINOMEscan: NLK", "setting": "panel of 442 kinases [1]", "result": 68},
      {"measurement": "KINOMEscan: BMPR1A", "setting": "panel of 442 kinases [2]", "result": 67}
    ]},
    {"smiles": "COc1cc(C(=O)N2CCC(N3CCN(C)CC3)CC2)ccc1Nc1ncc2c(n1)N(C)c1ccccc1C(=O)N2C", "note": "[15 (LRRK2-IN-1)]", "values": [
      {"measurement": "KINOMEscan: NLK", "setting": "panel of 442 kinases [1]", "result": 50},
      {"measurement": "KINOMEscan: BMPR1A", "setting": "panel of 442 kinases [2]", "result": 100}
    ]}
  ]
}
